Literature values as cited in patent US20230346830A1 (priority 2020, published 2023).
Where two headings read alike, the source gives them in different places.

Experiments:
[1] = test system: broad range of microorganisms; conditions: no less than 160 ppm, five hours of continuous exposure
[2] = 160 ppm for 30 min every 3.5 hours, intermittent
[3] = test system: severe acute respiratory syndrome SARS; conditions: in vivo

| Compound | inhibition of the virus replication cycle compared with cytokine treatment (SARS CoV; 50 μM SNAP) | reduction in the yield of progeny virus (SARS CoV; 100 μM SNAP) [log] | viral RNA production (SARS CoV; 400 μM SNAP) | inhibitory effect on yield of progeny virus (SARS CoV; 400 μM SNAP, compared with 100 μM) | replication cycle of SARS CoV (SARS CoV; concentration-dependent) | antimicrobial response in vitro [1] | methemoglobinemia [2] | arterial oxygen saturation [3] | lung infiltrates [3] | replication cycle of SARS CoV (SARS CoV) | survival of infected mice (influenza WSN/33; administered prophylactically or post-influenza infection, 80 ppm continuous or 160 ppm intermittent) | lung viral load between experimental groups (influenza WSN/33; influenza-infected mice) | effect on the virus (influenza WSN/33; influenza-infected mice, continuously at 80 ppm or intermittently at 160 ppm for 30 minutes followed by 3½ hours of breathing air) |
| --- | --- | --- | --- | --- | --- | --- | --- | --- | --- | --- | --- | --- | --- |
| CC(=O)N[C@H](C(=O)O)C(C)(C)SN=O (racemic) [SNAP, S-nitroso-N-acetylpenicillamine] | same level of inhibition | 2 | significantly inhibited | even more pronounced | significantly inhibited |  |  |  |  |  |  |  |  |
| [N]=O [NO, Nitric oxide] |  |  |  |  |  | non-specific antimicrobial response | could prevent methemoglobinemia | improved | decreased the spread and intensity | specifically inhibits | failed to improve survival | No difference | no effect |
